ChEMBL document CHEMBL4842340, “Development of Cagrilintide, a Long-Acting Amylin Analogue” (J Med Chem, 2021)
Converted amounts (≈) assume the structure as drawn. *1 amine or outer side, *2 acyl side, *3 side chain or, on linkers, in order; H or OH if unused. Where a SMILES comes first, the peptide text is derived from it. Bridges are numbered along the chain shown (N, C = ends). [ ]: non-standard residue; d: D form. The star is where a group is joined. X1 = O=C(NC(=O)[C@H](Cc1cnc[nH]1)N[*:1])[C@@H](Cc1cnc[nH]1)C(=O)[*:2]; C20 diacid = O=C(O)CCCCCCCCCCCCCCCCCCC(=O)*; γGlu = O=C(O)[C@H](CCC(=O)[*:2])N[*:1]; Agb = N=C(N)NCC[C@H](N)C(=O)O

Assays:
[1] = Displacement of [125I]-amylin from human AMY3R (CTR+RAMP3) expressed in BHK-13 cells measured after 120 mins by scintillation proximity assay; format: cell-based
[2] = Solubility of the compound in bis-tris propane at pH 8 by UPLC analysis; format: physicochemical; conditions: bis-tris propane buffer
[3] = Solubility of the compound in lactate at pH 5 by UPLC analysis; format: physicochemical; conditions: lactate buffer
Rattus norvegicus [4] = species: Rattus norvegicus; assay: Ratio of EC50 for rat calcitonin receptor expressed in BHK-13 cells to EC50 for rat AMY3R (CT+RAMP3) expressed in tk-ts13 cells; format: cell-based
[5] = Solubility of the compound in lactate at pH 3 by UPLC analysis; format: physicochemical; conditions: lactate buffer
[6] = Solubility of the compound in lactate at pH 4 by UPLC analysis; format: physicochemical; conditions: lactate buffer
Insulin (Homo sapiens) [7] = target: Insulin (Homo sapiens) (UniProt P01308); assay: Effect on insulin (unknown origin) amyloid fibril formation assessed as peptide recovery in glycyl-glycine buffer at pH 4 measured after 45 hrs by thioflavin-T fluorescence assay relative to control; design: concentration or dose not given beside the values
Insulin (Homo sapiens), sequence (P01308 whole entry): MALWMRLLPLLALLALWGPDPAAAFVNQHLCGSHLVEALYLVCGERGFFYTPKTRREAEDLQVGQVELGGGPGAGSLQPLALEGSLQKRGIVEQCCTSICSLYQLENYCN

Homo sapiens = species: Homo sapiens; assay: Ratio of EC50 for human calcitonin receptor expressed in BHK570 cells to EC50 for human AMY3R (CT+RAMP3) expressed in Hollex1 cells; format: cell-based
[8] = Agonist activity at rat calcitonin receptor expressed in BHK-13 cells assessed as increase in intracellular cAMP concentration incubated for 25 mins by CRE luciferase reporter gene assay; format: cell-based; conditions: BHK-13, 25 min
Rattus norvegicus [9] = assay: Reduction in food intake in Sprague-Dawley rat at 30 nmol/kg, sc administered as single dose measured upto 24 hrs relative to control; format: functional; design: scale not given: the % may be the effect or the level left; conditions: time hrs <=24
Insulin (Homo sapiens) [10] = target: Insulin (Homo sapiens) (UniProt P01308); assay: Effect on insulin (unknown origin) amyloid fibril formation assessed as lag time in glycyl-glycine buffer at pH 4 measured after 45 hrs by thioflavin-T fluorescence assay
[11] = Agonist activity at human calcitonin receptor expressed in BHK570 cells assessed as increase in intracellular cAMP concentration incubated for 3 hrs in absence of albumin by CRE luciferase reporter gene assay; format: cell-based; conditions: BHK570, 3 h
[12] = Solubility of the compound in bis-tris propane at pH 6 by UPLC analysis; format: physicochemical; conditions: bis-tris propane buffer
Rattus norvegicus [13] = assay: Reduction in food intake in Sprague-Dawley rat at 30 nmol/kg, sc administered as single dose measured after 24 to 48 hrs relative to control; format: functional; design: scale not given: the % may be the effect or the level left; conditions: time 24-48 hrs
[14] = Agonist activity at human AMY3R (CT+RAMP3) expressed in Hollex1 cells incubated for 3 hrs by luminescence assay; format: cell-based; conditions: Hollex1, 3 h
[15] = Agonist activity at rat AMY3R (CT+RAMP3) expressed in tk-ts13 cells assessed as increase in intracellular cAMP level incuabted for 25 mins by CRE luciferase reporter gene assay; format: cell-based; conditions: tk-ts13, 25 min
[16] = Solubility of the compound in bis-tris propane at pH 7 by UPLC analysis; format: physicochemical; conditions: bis-tris propane buffer
[17] = Solubility of the compound in bis-tris propane at pH 6.5 by UPLC analysis; format: physicochemical; conditions: bis-tris propane buffer
[18] = Solubility of the compound in bis-tris propane at pH 7.5 by UPLC analysis; format: physicochemical; conditions: bis-tris propane buffer

SMILES	IC50 [1]	solubility [2]	solubility [3]	Ratio EC50 (Rattus norvegicus [4])	solubility [5]	solubility [6]	Activity (Insulin (Homo sapiens) [7])	Ratio EC50 (Homo sapiens)	EC50 [8]	Activity (Rattus norvegicus [9])	TIME (Insulin (Homo sapiens) [10])	EC50 [11]	solubility [12]	Activity (Rattus norvegicus [13])	EC50 [14]	EC50 [15]	solubility [16]	solubility [17]	solubility [18]
CC[C@H](C)[C@H](NC(=O)[C@@H]1CCCN1C(=O)CNC(=O)[C@H](Cc1ccccc1)NC(=O)[C@H](CC(N)=O)NC(=O)[C@H](CC(N)=O)NC(=O)[C@H](CO)NC(=O)[C@H](CO)NC(=O)[C@H](Cc1cnc[nH]1)NC(=O)[C@H](Cc1cnc[nH]1)NC(=O)[C@H](CC(C)C)NC(=O)[C@H](Cc1ccccc1)NC(=O)[C@H](CCC(=O)O)NC(=O)[C@H](C)NC(=O)[C@H](CC(C)C)NC(=O)[C@H](CCCNC(=N)N)NC(=O)[C@H](CCC(N)=O)NC(=O)[C@@H](NC(=O)[C@H](C)NC(=O)[C@@H]1CSSC[C@H](NC(=O)[C@H](Cc2cnc[nH]2)NC(=O)[C@H](Cc2cnc[nH]2)NC(=O)[C@H](Cc2cnc[nH]2)NC(=O)CC[C@H](NC(=O)CCCCCCCCCCCCCCCCCCC(=O)O)C(=O)O)C(=O)N[C@@H](CC(N)=O)C(=O)N[C@@H]([C@@H](C)O)C(=O)N[C@@H](C)C(=O)N[C@@H]([C@@H](C)O)C(=O)N1)[C@@H](C)O)C(=O)N[C@@H](CC(C)C)C(=O)N1CCC[C@H]1C(=O)N1CCC[C@H]1C(=O)N[C@H](C(=O)N[C@@H](CC(N)=O)C(=O)N[C@H](C(=O)NCC(=O)N[C@@H](CO)C(=O)N[C@@H](CC(N)=O)C(=O)N[C@H](C(=O)N[C@@H](Cc1ccc(O)cc1)C(N)=O)[C@@H](C)O)C(C)C)[C@@H](C)O ({C20 diacid-γGlu}-HHHCNTATCATQRLAEFLHHSSNNFGPILPPTNVGSNTY-NH2; disulfide 4-9)	0.723 nM	200 µM (≈ 948 µg/mL)	200 µM (≈ 948 µg/mL)	10	200 µM (≈ 948 µg/mL)	200 µM (≈ 948 µg/mL)	3%	3	0.857 nM	87%	7 h	0.2 nM	200 µM (≈ 948 µg/mL)	92%	0.074 nM	0.083 nM	–	–	–
CC[C@H](C)[C@H](NC(=O)[C@@H]1CCCN1C(=O)CNC(=O)[C@H](Cc1ccccc1)NC(=O)[C@H](CC(N)=O)NC(=O)[C@H](CC(N)=O)NC(=O)[C@H](CO)NC(=O)[C@H](CO)NC(=O)[C@H](Cc1cnc[nH]1)NC(=O)[C@H](CCCNC(=N)N)NC(=O)[C@H](CC(C)C)NC(=O)[C@H](Cc1ccccc1)NC(=O)[C@H](CCC(=O)O)NC(=O)[C@H](C)NC(=O)[C@H](CC(C)C)NC(=O)[C@H](CCCNC(=N)N)NC(=O)[C@H](CCC(N)=O)NC(=O)[C@@H](NC(=O)[C@H](C)NC(=O)[C@@H]1CSSC[C@H](NC(=O)[C@H](Cc2cnc[nH]2)NC(=O)[C@H](Cc2cnc[nH]2)NC(=O)[C@H](Cc2cnc[nH]2)NC(=O)CC[C@H](NC(=O)CCCCCCCCCCCCCCCCCCC(=O)O)C(=O)O)C(=O)N[C@@H](CC(N)=O)C(=O)N[C@@H]([C@@H](C)O)C(=O)N[C@@H](C)C(=O)N[C@@H]([C@@H](C)O)C(=O)N1)[C@@H](C)O)C(=O)N[C@@H](CC(C)C)C(=O)N1CCC[C@H]1C(=O)N1CCC[C@H]1C(=O)N[C@H](C(=O)N[C@@H](CC(N)=O)C(=O)N[C@H](C(=O)NCC(=O)N[C@@H](CO)C(=O)N[C@@H](CC(N)=O)C(=O)N[C@H](C(=O)N[C@@H](Cc1ccc(O)cc1)C(N)=O)[C@@H](C)O)C(C)C)[C@@H](C)O ({C20 diacid-γGlu}-HHHCNTATCATQRLAEFLRHSSNNFGPILPPTNVGSNTY-NH2; disulfide 4-9)	–	–	200 µM (≈ 952 µg/mL)	82	200 µM (≈ 952 µg/mL)	200 µM (≈ 952 µg/mL)	50%	6	6.76 nM	70%	45 h	0.407 nM	200 µM (≈ 952 µg/mL)	45%	0.072 nM	0.082 nM	9 µM (≈ 42.8 µg/mL)	–	–
CC[C@H](C)[C@H](NC(=O)[C@@H]1CCCN1C(=O)CNC(=O)[C@H](Cc1ccccc1)NC(=O)[C@H](CC(N)=O)NC(=O)[C@H](CC(N)=O)NC(=O)[C@H](CO)NC(=O)[C@H](CO)NC(=O)[C@H](Cc1cnc[nH]1)NC(=O)[C@H](Cc1cnc[nH]1)NC(=O)[C@H](CC(C)C)NC(=O)[C@H](Cc1ccccc1)NC(=O)[C@H](CCCNC(=N)N)NC(=O)[C@H](C)NC(=O)[C@H](CC(C)C)NC(=O)[C@H](CCCNC(=N)N)NC(=O)[C@H](CCC(N)=O)NC(=O)[C@@H](NC(=O)[C@H](C)NC(=O)[C@@H]1CSSC[C@H](NC(=O)[C@H](Cc2cnc[nH]2)NC(=O)[C@H](Cc2cnc[nH]2)NC(=O)[C@H](Cc2cnc[nH]2)NC(=O)CC[C@H](NC(=O)CCCCCCCCCCCCCCCCCCC(=O)O)C(=O)O)C(=O)N[C@@H](CC(N)=O)C(=O)N[C@@H]([C@@H](C)O)C(=O)N[C@@H](C)C(=O)N[C@@H]([C@@H](C)O)C(=O)N1)[C@@H](C)O)C(=O)N[C@@H](CC(C)C)C(=O)N1CCC[C@H]1C(=O)N1CCC[C@H]1C(=O)N[C@H](C(=O)N[C@@H](CC(N)=O)C(=O)N[C@H](C(=O)NCC(=O)N[C@@H](CO)C(=O)N[C@@H](CC(N)=O)C(=O)N[C@H](C(=O)N[C@@H](Cc1ccc(O)cc1)C(N)=O)[C@@H](C)O)C(C)C)[C@@H](C)O ({C20 diacid-γGlu}-HHHCNTATCATQRLARFLHHSSNNFGPILPPTNVGSNTY-NH2; disulfide 4-9)	–	–	200 µM (≈ 953 µg/mL)	50	200 µM (≈ 953 µg/mL)	200 µM (≈ 953 µg/mL)	10%	6	7.09 nM	65%	10 h	0.398 nM	200 µM (≈ 953 µg/mL)	25%	0.069 nM	0.143 nM	1 µM (≈ 4.77 µg/mL)	117 µM (≈ 558 µg/mL)	–
CC[C@H](C)[C@H](NC(=O)[C@@H]1CCCN1C(=O)CNC(=O)[C@H](Cc1ccccc1)NC(=O)[C@H](CC(N)=O)NC(=O)[C@H](CC(N)=O)NC(=O)[C@H](CO)NC(=O)[C@H](CO)NC(=O)[C@H](Cc1cnc[nH]1)NC(=O)[C@H](Cc1cnc[nH]1)NC(=O)[C@H](CC(C)C)NC(=O)[C@H](Cc1ccccc1)NC(=O)[C@H](CC(N)=O)NC(=O)[C@H](C)NC(=O)[C@H](CC(C)C)NC(=O)[C@H](CCNC(=N)N)NC(=O)[C@H](CCC(N)=O)NC(=O)[C@@H](NC(=O)[C@H](C)NC(=O)[C@@H]1CSSC[C@H](NC(=O)[C@H](Cc2cnc[nH]2)NC(=O)[C@H](Cc2cnc[nH]2)C(=O)NC(=O)[C@H](Cc2cnc[nH]2)NC(=O)CC[C@H](NC(=O)CCCCCCCCCCCCCCCCCCC(=O)O)C(=O)O)C(=O)N[C@@H](CC(N)=O)C(=O)N[C@@H]([C@@H](C)O)C(=O)N[C@@H](C)C(=O)N[C@@H]([C@@H](C)O)C(=O)N1)[C@@H](C)O)C(=O)N[C@@H](CC(C)C)C(=O)N1CCC[C@H]1C(=O)N1CCC[C@H]1C(=O)N[C@H](C(=O)N[C@@H](CC(N)=O)C(=O)N[C@H](C(=O)NCC(=O)N[C@@H](CO)C(=O)N[C@@H](CC(N)=O)C(=O)N[C@H](C(=O)N[C@@H](Cc1ccc(O)cc1)C(N)=O)[C@@H](C)O)C(C)C)[C@@H](C)O ({C20 diacid-γGlu}-[X1]HCNTATCATQ[Agb]LANFLHHSSNNFGPILPPTNVGSNTY-NH2; disulfide 3-8)	1.29 nM	19 µM (≈ 90 µg/mL)	200 µM (≈ 948 µg/mL)	18	200 µM (≈ 948 µg/mL)	200 µM (≈ 948 µg/mL)	7%	10	18.4 nM	28%	7 h	0.961 nM	200 µM (≈ 948 µg/mL)	0%	0.095 nM	1.03 nM	7 µM (≈ 33.2 µg/mL)	115 µM (≈ 545 µg/mL)	5 µM (≈ 23.7 µg/mL)
